According to patent US9695155B2, “Herbicidal substituted pyrimidinyloxy benzene compounds” (E. I. DU PONT DE NEMOURS AND COMPANY, priority 2013, dated 2017):

Assays:
[1] = test system: blackgrass; assay: Test D preemergence; assay type: in vivo, Alopecurus myosuroides
How it was run: (§1)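 In a controlled growth environment, treated and control plants were held 7 to 21 days, then compared visually. Damage was scored 0–100, where 100 means complete control. Sprays contained surfactant in a non-phytotoxic solvent; post-applied plants were at the 1- to 4-leaf stage.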

[2] = test system: wild oat; assay: Test D preemergence; assay type: in vivo, Avena fatua
Text: (§2) Seeds of plant species selected from bluegrass (annual bluegrass, Poa annua), blackgrass (Alopecurus myosuroides), canarygrass (littleseed canarygrass, Phalaris minor), chickweed (common chickweed, Stellaria media), galium (catchweed bedstraw, Galium aparine), bromegrass, downy (downy bromegrass, Bromus tectorum), field poppy (Papaver rhoeas), field violet (Viola arvensis), green foxtail (Setaria viridis), deadnettle (henbit deadnettle, Lamium amplexicaule), Italian ryegrass (Lolium multiflorum), kochia (Kochia scoparia), lambsquarters (Chenopodium album), oilseed rape (Brassica napus), pigweed (Amaranthus retroflexus), chamomile (scentless chamomile, Matricaria inodora), Russian thistle (Salsola kali), speedwell (bird's-eye speedwell, Veronica persica), spring barley (Hordeum vulgare), spring wheat (Triticum aestivum), wild buckwheat (Polygonum convolvulus), wild mustard (Sinapis arvensis), wild oat (Avena fatua), wild radish (Raphanus raphanistrum), windgrass (Apera spica-venti), winter barley (Hordeum vulgare), and winter wheat (Triticum aestivum) were planted into a silt loam soil and treated preemergence with test chemicals formulated in a non-phytotoxic solvent mixture which included a surfactant.
(§3) At the same time, these species were planted in pots containing Redi-Earth® planting medium (Scotts Company, 14111 Scottslawn Road, Marysville, Ohio 43041) comprising spaghnum peat moss, vermiculite, wetting agent and starter nutrients and treated with postemergence applications of the test chemicals formulated in the same manner. Plants ranged in height from 2 to 18 cm (1- to 4-leaf stage). Treated plants and controls were maintained in a controlled growth environment for 7 to 21 days after which time all species were compared to controls and visually evaluated. Plant response ratings, summarized in Table D, are based on a scale of 0 to 100 where 0 is no effect and 100 is complete control. A dash (-) response means no test result.

[3] = test system: green foxtail; assay: Test D postemergence; assay type: in vivo, Setaria viridis
Text: as §2, §3

[4] = test system: wild mustard; assay: Test D preemergence; assay type: in vivo, Sinapis arvensis
How it was run: as §1

[5] = test system: bluegrass; assay: Test D preemergence; assay type: in vivo, Poa annua
Text: as §2, §3

[6] = test system: Italian ryegrass; assay: Test D preemergence; assay type: in vivo, Lolium multiflorum
Text: as §2, §3

[7] = test system: spring wheat; assay: Test D postemergence; assay type: in vivo, Triticum aestivum
Text: as §2, §3

[8] = test system: winter wheat; assay: Test D postemergence; assay type: in vivo, Triticum aestivum
Text: as §2, §3

[9] = test system: winter barley; assay: Test D preemergence; assay type: in vivo, Hordeum vulgare
How it was run: as §1

[10] = test system: spring barley; assay: Test D preemergence; assay type: in vivo, Hordeum vulgare
How it was run: as §1

[11] = 31 g ai/ha, scale 0 (no effect) to 100 (complete control)
[12] = 62 g ai/ha, scale 0 to 100 (0 no effect, 100 complete control)
[13] = 125 g ai/ha, scale 0 to 100 (0 no effect, 100 complete control)
[14] = 250 g ai/ha, scale 0 to 100 (0 no effect, 100 complete control)

SMILES: FC(F)(F)COc1cnn(-c2ccccc2Oc2ncc(Cl)cn2)c1 [Compound 138, 5-chloro-2-[2-[4-(2,2,2-trifluoroethoxy)-1H-pyrazol-1-yl]phenoxy]pyrimidine]
- pest or weed control at 16 g/ha ([1]; Alopecurus myosuroides, pre-emergence, 16 g ai/ha, scale 0 (no effect) to 100 (complete control), read-out: Plant response rating, Blackgrass): 0%
- pest or weed control at 31 g/ha ([1]; Alopecurus myosuroides, pre-emergence, 31 g ai/ha, scale 0-100, read-out: Plant response rating, Blackgrass): 0%
- pest or weed control at 62 g/ha ([1]; Alopecurus myosuroides, pre-emergence, 62 g ai/ha, scale 0-100, read-out: Plant response rating, Blackgrass): 25%
- pest or weed control at 125 g/ha ([1]; Alopecurus myosuroides, pre-emergence, 125 g ai/ha, scale 0-100, read-out: Plant response rating, Blackgrass): 30%
- pest or weed control at 16 g/ha ([2]; Avena fatua, pre-emergence, 16 g ai/ha, scale 0 (no effect) to 100 (complete control), read-out: Plant response rating, Oat, Wild): 0%
- pest or weed control at 31 g/ha ([2]; Avena fatua, pre-emergence, 31 g ai/ha, scale 0-100, read-out: Plant response rating, Oat, Wild): 0%
- pest or weed control at 62 g/ha ([2]; Avena fatua, pre-emergence, 62 g ai/ha, scale 0-100, read-out: Plant response rating, Oat, Wild): 0%
- pest or weed control at 125 g/ha ([2]; Avena fatua, pre-emergence, 125 g ai/ha, scale 0-100, read-out: Plant response rating, Oat, Wild): 0%
- pest or weed control at 16 g/ha ([3]; Setaria viridis, post-emergence, 16 g ai/ha, scale 0-100, read-out: Plant response rating, Foxtail, Green): 20%
- pest or weed control at 31 g/ha ([3]; Setaria viridis, post-emergence, 31 g ai/ha, scale 0 to 100 (0 no effect, 100 complete control), read-out: Plant response rating, Foxtail, Green): 20%
- pest or weed control at 62 g/ha ([3]; Setaria viridis, post-emergence, 62 g ai/ha, scale 0 to 100 (0 no effect, 100 complete control), read-out: Plant response rating, Foxtail, Green): 20%
- pest or weed control at 125 g/ha ([3]; Setaria viridis, post-emergence, 125 g ai/ha, scale 0 to 100 (0 no effect, 100 complete control), read-out: Plant response rating, Foxtail, Green): 30%
- pest or weed control at 16 g/ha ([4]; Brassica, pre-emergence, 16 g ai/ha, scale 0 (no effect) to 100 (complete control), read-out: Plant response rating, Mustard, Wild): 55%
- pest or weed control at 31 g/ha ([4]; Brassica, pre-emergence, 31 g ai/ha, scale 0-100, read-out: Plant response rating, Mustard, Wild): 65%
- pest or weed control at 62 g/ha ([4]; Brassica, pre-emergence, 62 g ai/ha, scale 0-100, read-out: Plant response rating, Mustard, Wild): 100%
- pest or weed control at 125 g/ha ([4]; Brassica, pre-emergence, 125 g ai/ha, scale 0-100, read-out: Plant response rating, Mustard, Wild): 100%
- pest or weed control at 16 g/ha ([5]; Poa annua, pre-emergence, 16 g ai/ha, scale 0 (no effect) to 100 (complete control), read-out: Plant response rating, Bluegrass): 0%
- pest or weed control at 31 g/ha ([5]; Poa annua, pre-emergence, 31 g ai/ha, scale 0-100, read-out: Plant response rating, Bluegrass): 0%
- pest or weed control at 62 g/ha ([5]; Poa annua, pre-emergence, 62 g ai/ha, scale 0-100, read-out: Plant response rating, Bluegrass): 0%
- pest or weed control at 125 g/ha ([5]; Poa annua, pre-emergence, 125 g ai/ha, scale 0-100, read-out: Plant response rating, Bluegrass): 10%
- pest or weed control at 16 g/ha ([6]; Lolium multiflorum, pre-emergence, 16 g ai/ha, scale 0 (no effect) to 100 (complete control), read-out: Plant response rating, Ryegrass, Italian): 0%
- pest or weed control at 31 g/ha ([6]; Lolium multiflorum, pre-emergence, 31 g ai/ha, scale 0 (no effect) to 100 (complete control), read-out: Plant response rating, Ryegrass, Italian): 0%
- pest or weed control at 62 g/ha ([6]; Lolium multiflorum, pre-emergence, 62 g ai/ha, scale 0-100, read-out: Plant response rating, Ryegrass, Italian): 0%
- pest or weed control at 125 g/ha ([6]; Lolium multiflorum, pre-emergence, 125 g ai/ha, scale 0-100, read-out: Plant response rating, Ryegrass, Italian): 10%
- plant injury at 16 g/ha ([7]; Triticum aestivum, post-emergence, 16 g ai/ha, scale 0-100, read-out: Plant response rating, Wheat, Spring): 5%
- plant injury at 31 g/ha ([7]; Triticum aestivum, post-emergence, 31 g ai/ha, scale 0 to 100 (0 no effect, 100 complete control), read-out: Plant response rating, Wheat, Spring): 5%
- plant injury at 62 g/ha ([7]; Triticum aestivum, post-emergence, 62 g ai/ha, scale 0 to 100 (0 no effect, 100 complete control), read-out: Plant response rating, Wheat, Spring): 5%
- plant injury at 125 g/ha ([7]; Triticum aestivum, post-emergence, 125 g ai/ha, scale 0 to 100 (0 no effect, 100 complete control), read-out: Plant response rating, Wheat, Spring): 15%
- plant injury at 16 g/ha ([8]; Triticum aestivum, post-emergence, 16 g ai/ha, scale 0-100, read-out: Plant response rating, Wheat, Winter): 0%
- plant injury at 31 g/ha ([8]; Triticum aestivum, post-emergence, 31 g ai/ha, scale 0 to 100 (0 no effect, 100 complete control), read-out: Plant response rating, Wheat, Winter): 0%
- plant injury at 62 g/ha ([8]; Triticum aestivum, post-emergence, 62 g ai/ha, scale 0 to 100 (0 no effect, 100 complete control), read-out: Plant response rating, Wheat, Winter): 5%
- plant injury at 125 g/ha ([8]; Triticum aestivum, post-emergence, 125 g ai/ha, scale 0 to 100 (0 no effect, 100 complete control), read-out: Plant response rating, Wheat, Winter): 15%
- plant injury at 16 g/ha ([9]; Hordeum vulgare, pre-emergence, 16 g ai/ha, scale 0 (no effect) to 100 (complete control), read-out: Plant response rating, Barley, Winter): 0%
- plant injury at 31 g/ha ([9]; Hordeum vulgare, pre-emergence, 31 g ai/ha, scale 0-100, read-out: Plant response rating, Barley, Winter): 0%
- plant injury at 62 g/ha ([9]; Hordeum vulgare, pre-emergence, 62 g ai/ha, scale 0-100, read-out: Plant response rating, Barley, Winter): 5%
- plant injury at 125 g/ha ([9]; Hordeum vulgare, pre-emergence, 125 g ai/ha, scale 0-100, read-out: Plant response rating, Barley, Winter): 15%
- plant injury at 16 g/ha ([10]; Hordeum vulgare, pre-emergence, 16 g ai/ha, scale 0 (no effect) to 100 (complete control), read-out: Plant response rating, Barley, Spring): 10%
- plant injury at 31 g/ha ([10]; Hordeum vulgare, pre-emergence, 31 g ai/ha, scale 0-100, read-out: Plant response rating, Barley, Spring): 10%
- plant injury at 62 g/ha ([10]; Hordeum vulgare, pre-emergence, 62 g ai/ha, scale 0-100, read-out: Plant response rating, Barley, Spring): 10%
- plant injury at 125 g/ha ([10]; Hordeum vulgare, pre-emergence, 125 g ai/ha, scale 0-100, read-out: Plant response rating, Barley, Spring): 15%

SMILES: N#Cc1cccc(Oc2ncc(Cl)cn2)c1-n1cc(-n2ccc(C(F)(F)F)n2)cn1 [Compound 284]
- Plant response rating, Blackgrass [1, 11]: 0
- Plant response rating, Blackgrass ([1]; 62 g ai/ha, scale 0-100): 10
- Plant response rating, Blackgrass ([1]; 125 g ai/ha, scale 0-100): 35
- Plant response rating, Blackgrass ([1]; 250 g ai/ha, scale 0-100): 65
- Plant response rating, Oat, Wild [2, 11]: 0
- Plant response rating, Oat, Wild ([2]; 62 g ai/ha, scale 0-100): 0
- Plant response rating, Oat, Wild ([2]; 125 g ai/ha, scale 0-100): 20
- Plant response rating, Oat, Wild ([2]; 250 g ai/ha, scale 0-100): 50
- Plant response rating, Foxtail, Green ([3]; 31 g ai/ha, scale 0-100): 10
- Plant response rating, Foxtail, Green [3, 12]: 10
- Plant response rating, Foxtail, Green [3, 13]: 50
- Plant response rating, Foxtail, Green [3, 14]: 85
- Plant response rating, Mustard, Wild [4, 11]: 15
- Plant response rating, Mustard, Wild ([4]; 62 g ai/ha, scale 0-100): 15
- Plant response rating, Mustard, Wild ([4]; 125 g ai/ha, scale 0-100): 90
- Plant response rating, Mustard, Wild ([4]; 250 g ai/ha, scale 0-100): 100
- Plant response rating, Bluegrass [5, 11]: 0
- Plant response rating, Bluegrass ([5]; 62 g ai/ha, scale 0-100): 15
- Plant response rating, Bluegrass ([5]; 125 g ai/ha, scale 0-100): 20
- Plant response rating, Bluegrass ([5]; 250 g ai/ha, scale 0-100): 25
- Plant response rating, Ryegrass, Italian [6, 11]: 0
- Plant response rating, Ryegrass, Italian ([6]; 125 g ai/ha, scale 0-100): 0
- Plant response rating, Ryegrass, Italian ([6]; 250 g ai/ha, scale 0-100): 30
- Plant response rating, Wheat, Spring ([7]; 31 g ai/ha, scale 0-100): 15
- Plant response rating, Wheat, Spring [7, 12]: 25
- Plant response rating, Wheat, Spring [7, 13]: 30
- Plant response rating, Wheat, Spring [7, 14]: 35
- Plant response rating, Wheat, Winter ([8]; 31 g ai/ha, scale 0-100): 10
- Plant response rating, Wheat, Winter [8, 12]: 25
- Plant response rating, Wheat, Winter [8, 13]: 20
- Plant response rating, Wheat, Winter [8, 14]: 25
- Plant response rating, Barley, Winter [9, 11]: 0
- Plant response rating, Barley, Winter ([9]; 62 g ai/ha, scale 0-100): 0
- Plant response rating, Barley, Winter ([9]; 125 g ai/ha, scale 0-100): 15
- Plant response rating, Barley, Winter ([9]; 250 g ai/ha, scale 0-100): 20
- Plant response rating, Barley, Spring [10, 11]: 10
- Plant response rating, Barley, Spring ([10]; 62 g ai/ha, scale 0-100): 15
- Plant response rating, Barley, Spring ([10]; 125 g ai/ha, scale 0-100): 25
- Plant response rating, Barley, Spring ([10]; 250 g ai/ha, scale 0-100): 35
